Results from PMC11845477, “Exploring the principles behind antibiotics with limited resistance” (Nature Communications, 2025).

Tested on: P. aeruginosa ATCC BAA-3107 (SEN) and P. aeruginosa LESB58 (MDR)
Assay: Adaptive laboratory evolution (ALE), relative MIC of evolved lines
Format: cell-based, Pseudomonas aeruginosa
In short: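 Ten parallel populations per antibiotic–ancestor pair were evolved in MHB at 37 °C, starting near 50% growth-inhibiting drug. Every 72 h they were passaged into 0.5–2.5× increasing concentrations, keeping the highest-drug well with OD600 > 0.2.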

[1] = PA-MDR (Pseudomonas aeruginosa LESB 58), evolved line 1
[2] = PA-MDR (Pseudomonas aeruginosa LESB 58), evolved line 6
[3] = PA-MDR, Pseudomonas aeruginosa LESB 58, evolved line 9
[4] = PA-MDR, Pseudomonas aeruginosa LESB 58, evolved line 10
[5] = PA-MDR, Pseudomonas aeruginosa LESB 58, evolved line 2
[6] = PA-MDR, Pseudomonas aeruginosa LESB 58, evolved line 3
[7] = PA-MDR, Pseudomonas aeruginosa LESB 58, evolved line 4
[8] = PA-MDR, Pseudomonas aeruginosa LESB 58, evolved line 5
[9] = PA-MDR, Pseudomonas aeruginosa LESB 58, evolved line 7
[10] = PA-MDR, Pseudomonas aeruginosa LESB 58, evolved line 8
[11] = PA-SEN, Pseudomonas aeruginosa ATCC BAA 3107, evolved line 1
[12] = PA-SEN, Pseudomonas aeruginosa ATCC BAA 3107, evolved line 2
[13] = PA-SEN, Pseudomonas aeruginosa ATCC BAA 3107, evolved line 3
[14] = PA-SEN, Pseudomonas aeruginosa ATCC BAA 3107, evolved line 4
[15] = PA-SEN, Pseudomonas aeruginosa ATCC BAA 3107, evolved line 5
[16] = PA-SEN, Pseudomonas aeruginosa ATCC BAA 3107, evolved line 6
[17] = PA-SEN, Pseudomonas aeruginosa ATCC BAA 3107, evolved line 7
[18] = PA-SEN, Pseudomonas aeruginosa ATCC BAA 3107, evolved line 8
[19] = PA-SEN, Pseudomonas aeruginosa ATCC BAA 3107, evolved line 9
[20] = PA-SEN, Pseudomonas aeruginosa ATCC BAA 3107, evolved line 10

O=c1ccc2ncc(=O)n3c2n1C[C@H]3CN1CCC(NCc2cc3c(cn2)OCCC3)CC1 [Gepotidacin]
MIC of evolved line [1]: 128 µg/mL
Relative MIC [1]: 32
Relative MIC (log10) (PA-MDR (Pseudomonas aeruginosa LESB 58), evolved line 1 adapted to the named antibiotic): 1.505
Relative MIC (log10) (PA-MDR (Pseudomonas aeruginosa LESB 58), evolved line 2 adapted to the named antibiotic): 1.505
Relative MIC (log10) (PA-MDR (Pseudomonas aeruginosa LESB 58), evolved line 5 adapted to the named antibiotic): 1.505
MIC of evolved line [2]: 128 µg/mL
Relative MIC [2]: 32
Relative MIC (log10) (PA-MDR (Pseudomonas aeruginosa LESB 58), evolved line 7 adapted to the named antibiotic): 1.505
Relative MIC (log10) (PA-MDR (Pseudomonas aeruginosa LESB 58), evolved line 8 adapted to the named antibiotic): 1.505
Relative MIC (PA-MDR, Pseudomonas aeruginosa LESB 58, evolved line 1 versus ancestor): 32
Relative MIC (PA-MDR, Pseudomonas aeruginosa LESB 58, evolved line 2 versus ancestor): 32
Relative MIC (PA-MDR, Pseudomonas aeruginosa LESB 58, evolved line 3 versus ancestor): 32
Relative MIC (PA-MDR, Pseudomonas aeruginosa LESB 58, evolved line 4 versus ancestor): 32
Relative MIC (PA-MDR, Pseudomonas aeruginosa LESB 58, evolved line 5 versus ancestor): 32
Relative MIC (PA-MDR, Pseudomonas aeruginosa LESB 58, evolved line 6 versus ancestor): 32
Relative MIC (PA-MDR, Pseudomonas aeruginosa LESB 58, evolved line 7 versus ancestor): 32
Relative MIC (PA-MDR, Pseudomonas aeruginosa LESB 58, evolved line 8 versus ancestor): 32
MIC of evolved line [3]: 64 µg/mL
Relative MIC [3]: 16
Relative MIC (PA-MDR, Pseudomonas aeruginosa LESB 58, evolved line 9 versus ancestor): 16
MIC of evolved line [4]: 128 µg/mL
Relative MIC [4]: 32
Relative MIC (PA-MDR, Pseudomonas aeruginosa LESB 58, evolved line 10 versus ancestor): 32
MIC of evolved line [5]: 128 µg/mL
Relative MIC [5]: 32
MIC of evolved line [6]: 128 µg/mL
Relative MIC [6]: 32
MIC of evolved line [7]: 128 µg/mL
Relative MIC [7]: 32
MIC of evolved line [8]: 128 µg/mL
Relative MIC [8]: 32
MIC of evolved line [9]: 128 µg/mL
Relative MIC [9]: 32
MIC of evolved line [10]: 128 µg/mL
Relative MIC [10]: 32
Relative MIC (log10) (PA-SEN (Pseudomonas aeruginosa ATCC BAA 3107), evolved line 1 adapted to the named antibiotic): 1.806
Relative MIC (log10) (PA-SEN (Pseudomonas aeruginosa ATCC BAA 3107), evolved line 4 adapted to the named antibiotic): 1.806
Relative MIC (log10) (PA-SEN (Pseudomonas aeruginosa ATCC BAA 3107), evolved line 6 adapted to the named antibiotic): 1.806
Relative MIC (log10) (PA-SEN (Pseudomonas aeruginosa ATCC BAA 3107), evolved line 9 adapted to the named antibiotic): 1.806
Relative MIC (log10) (PA-SEN (Pseudomonas aeruginosa ATCC BAA 3107), evolved line 10 adapted to the named antibiotic): 1.806
MIC of evolved line [11]: 256 µg/mL
Relative MIC [11]: 64
Relative MIC (PA-SEN, Pseudomonas aeruginosa ATCC BAA 3107, evolved line 1 versus ancestor): 64
MIC of evolved line [12]: 256 µg/mL
Relative MIC [12]: 64
Relative MIC (PA-SEN, Pseudomonas aeruginosa ATCC BAA 3107, evolved line 2 versus ancestor): 64
MIC of evolved line [13]: 128 µg/mL
Relative MIC [13]: 32
Relative MIC (PA-SEN, Pseudomonas aeruginosa ATCC BAA 3107, evolved line 3 versus ancestor): 32
MIC of evolved line [14]: 256 µg/mL
Relative MIC [14]: 64
Relative MIC (PA-SEN, Pseudomonas aeruginosa ATCC BAA 3107, evolved line 4 versus ancestor): 64
MIC of evolved line [15]: 128 µg/mL
Relative MIC [15]: 32
Relative MIC (PA-SEN, Pseudomonas aeruginosa ATCC BAA 3107, evolved line 5 versus ancestor): 32
MIC of evolved line [16]: 256 µg/mL
Relative MIC [16]: 64
Relative MIC (PA-SEN, Pseudomonas aeruginosa ATCC BAA 3107, evolved line 6 versus ancestor): 64
MIC of evolved line [17]: 256 µg/mL
Relative MIC [17]: 64
Relative MIC (PA-SEN, Pseudomonas aeruginosa ATCC BAA 3107, evolved line 7 versus ancestor): 64
MIC of evolved line [18]: 128 µg/mL
Relative MIC [18]: 32
Relative MIC (PA-SEN, Pseudomonas aeruginosa ATCC BAA 3107, evolved line 8 versus ancestor): 32
MIC of evolved line [19]: 256 µg/mL
Relative MIC [19]: 64
Relative MIC (PA-SEN, Pseudomonas aeruginosa ATCC BAA 3107, evolved line 9 versus ancestor): 64
MIC of evolved line [20]: 256 µg/mL
Relative MIC [20]: 64
Relative MIC (PA-SEN, Pseudomonas aeruginosa ATCC BAA 3107, evolved line 10 versus ancestor): 64

C[C@@H](O)[C@H]1C(=O)N2C(C(=O)O)=C(S[C@@H]3CN[C@H](C(=O)N(C)C)C3)[C@H](C)[C@H]12 [Meropenem]
MIC of evolved line [3]: 256 µg/mL
MIC of evolved line [4]: 32 µg/mL
MIC of evolved line [11]: 16 µg/mL
MIC of evolved line [12]: 64 µg/mL
MIC of evolved line [14]: 64 µg/mL
MIC of evolved line [16]: 64 µg/mL
MIC of evolved line [18]: 32 µg/mL
MIC of evolved line [20]: 64 µg/mL
